Molecular target: CDK2 (UniProt P24941)
Assay: Enzyme Assay

| IC50 [µM] | SMILES |
| --- | --- |
| < 20 | COC(=O)CCSc1cc(=O)c2c(O)cc(O)c([C@H]3CCN(C)C[C@H]3O)c2o1 |
| < 20 | CCSc1cc(=O)c2c(O)cc(OC)c([C@H]3CCN(C)C[C@H]3O)c2o1 |
| < 20 | CCc1ccc(Sc2cc(=O)c3c(O)cc(O)c(C4CCN(C)CC4O)c3o2)cc1 (configuration not stated) |
| < 20 | CN1CC[C@H](c2c(O)cc(O)c3c(=O)cc(Sc4ccccc4Cl)oc23)[C@H](O)C1 |
| < 20 | CN1CCC(c2c(O)cc(O)c3c(=O)cc(Sc4ccccc4Cl)oc23)C(O)C1 (configuration not stated) |
| < 20 | CN1CC[C@H](c2c(O)cc(O)c3c(=O)cc(Oc4ccccc4)oc23)[C@H](O)C1 |
| < 20 | Cc1ccc(Sc2cc(=O)c3c(O)cc(O)c(C4CCN(C)CC4O)c3o2)cc1C (configuration not stated) |
| < 20 | COc1ccc(Sc2cc(=O)c3c(O)cc(O)c(C4CCN(C)CC4O)c3o2)cc1 (configuration not stated) |
| < 20 | CN1CCC(c2c(O)cc(O)c3c(=O)cc(SCc4ccc(C(C)(C)C)cc4)oc23)C(O)C1 (configuration not stated) |
| < 20 | CN1CC[C@H](c2c(O)cc(O)c3c(=O)cc(Sc4ccccc4)oc23)[C@H](O)C1 |
| < 20 | COc1ccc(Sc2cc(=O)c3c(O)cc(O)c([C@H]4CCN(C)C[C@H]4O)c3o2)cc1 |

Further lines, the compound ahead of its results:

| SMILES | IC50 [µM] |
| --- | --- |
| CC(=O)NCCSc1cc(=O)c2c(O)cc(O)c([C@H]3CCN(C)C[C@H]3O)c2o1 | < 20 |
| CN1CCC(c2c(O)cc(O)c3c(=O)cc(Sc4ccc(OC(F)(F)F)cc4)oc23)C(O)C1 (configuration not stated) | < 20 |
| CCCCSc1cc(=O)c2c(O)cc(O)c([C@H]3CCN(C)C[C@H]3O)c2o1 | < 20 |
| COc1ccc(CSc2cc(=O)c3c(O)cc(O)c([C@H]4CCN(C)C[C@H]4O)c3o2)cc1 | < 20 |
| CN1CC[C@H](c2c(O)cc(O)c3c(=O)cc(SCCO)oc23)[C@H](O)C1 | < 20 |
| CN1CCC(c2c(O)cc(O)c3c(=O)cc(Sc4ccc(C(C)(C)C)cc4)oc23)C(O)C1 (configuration not stated) | < 20 |
| CC(=O)NCCSc1cc(=O)c2c(O)cc(O)c(C3CCN(C)CC3O)c2o1 (configuration not stated) | < 20 |
| CN1CCC(c2c(O)cc(O)c3c(=O)cc(SCCO)oc23)C(O)C1 (configuration not stated) | < 20 |
| CCSc1cc(=O)c2c(O)cc(O)c([C@H]3CCN(C)C[C@H]3O)c2o1 | < 20 |
| COc1ccc(CSc2cc(=O)c3c(O)cc(O)c(C4CCN(C)CC4O)c3o2)cc1 (configuration not stated) | < 20 |
| CN1CC[C@H](c2c(O)cc(O)c3c(=O)cc(SCc4ccccc4)oc23)[C@H](O)C1 | < 20 |

— the Kinase Knowledgebase extract (Sharma et al. 2016)
